# Results published in patent US20180244611A1, “Modulators of the Cystic Fibrosis Transmembrane Conductance Regulator Protein and Methods of Use” (AbbVie S.à.r.l., priority 2017, published 2018).
# pEC50: −log10 of the molar value.
# Assays:
# [1] = target: T1, F508delCFTR (Homo sapiens, UniProt P13569, DEL508-508); assay: Cell Surface Expression-Horse Radish Peroxidase (CSE-HRP) assay, test compound without co-corrector; format: cell-based; conditions: for Emax: maximum at any tested concentration, normalized to positive control, without co-corrector; for pEC50: test compound without co-corrector;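 for Emax: percent of on-plate 2 µM positive control corrector response over DMSO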
# T1 construct: expressed in transfected cells; host or cells: CFBE41o- human lung-derived epithelial cells (CFBE41o-F508delCFTR-HRP), doxycycline-inducible
# Method in brief: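 CFBE41o- cells expressing F508delCFTR with HRP in the fourth exofacial loop, induced with 0.5 μg/mL doxycycline for 72 h at 37° C, then exposed to compound alone for 18-24 h at 33° C, 8-point 3-fold series from 20 μM. Surface HRP read by luminol luminescence, normalized to positive corrector control versus DMSO; EC50 from variable-slope sigmoidal fit of three replicate plates.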
# [2] = target: T1, F508delCFTR; assay: Cell Surface Expression-Horse Radish Peroxidase (CSE-HRP) assay, test compound with co-corrector; format: cell-based; conditions: with 2 μM co-corrector; for Maximum % activity (with co-corrector): maximum at any tested concentration, normalized to positive control;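 for Maximum % activity (with co-corrector): percent of 2 µM positive control corrector over DMSO; co-corrector is that same compound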
# Method in brief: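 CFBE41o- cells expressing F508delCFTR with HRP in the fourth exofacial loop, induced with 0.5 μg/mL doxycycline for 72 h, then treated 18-24 h at 33° C. with compound (8 points, top 20 μM, 3-fold) plus 2 μM co-corrector. Surface HRP read by luminol luminescence; activity normalised to positive control, EC50 from variable-slope sigmoidal fit.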
# T1 sequence (P13569 with tags, fused parts or gaps DEL508-508): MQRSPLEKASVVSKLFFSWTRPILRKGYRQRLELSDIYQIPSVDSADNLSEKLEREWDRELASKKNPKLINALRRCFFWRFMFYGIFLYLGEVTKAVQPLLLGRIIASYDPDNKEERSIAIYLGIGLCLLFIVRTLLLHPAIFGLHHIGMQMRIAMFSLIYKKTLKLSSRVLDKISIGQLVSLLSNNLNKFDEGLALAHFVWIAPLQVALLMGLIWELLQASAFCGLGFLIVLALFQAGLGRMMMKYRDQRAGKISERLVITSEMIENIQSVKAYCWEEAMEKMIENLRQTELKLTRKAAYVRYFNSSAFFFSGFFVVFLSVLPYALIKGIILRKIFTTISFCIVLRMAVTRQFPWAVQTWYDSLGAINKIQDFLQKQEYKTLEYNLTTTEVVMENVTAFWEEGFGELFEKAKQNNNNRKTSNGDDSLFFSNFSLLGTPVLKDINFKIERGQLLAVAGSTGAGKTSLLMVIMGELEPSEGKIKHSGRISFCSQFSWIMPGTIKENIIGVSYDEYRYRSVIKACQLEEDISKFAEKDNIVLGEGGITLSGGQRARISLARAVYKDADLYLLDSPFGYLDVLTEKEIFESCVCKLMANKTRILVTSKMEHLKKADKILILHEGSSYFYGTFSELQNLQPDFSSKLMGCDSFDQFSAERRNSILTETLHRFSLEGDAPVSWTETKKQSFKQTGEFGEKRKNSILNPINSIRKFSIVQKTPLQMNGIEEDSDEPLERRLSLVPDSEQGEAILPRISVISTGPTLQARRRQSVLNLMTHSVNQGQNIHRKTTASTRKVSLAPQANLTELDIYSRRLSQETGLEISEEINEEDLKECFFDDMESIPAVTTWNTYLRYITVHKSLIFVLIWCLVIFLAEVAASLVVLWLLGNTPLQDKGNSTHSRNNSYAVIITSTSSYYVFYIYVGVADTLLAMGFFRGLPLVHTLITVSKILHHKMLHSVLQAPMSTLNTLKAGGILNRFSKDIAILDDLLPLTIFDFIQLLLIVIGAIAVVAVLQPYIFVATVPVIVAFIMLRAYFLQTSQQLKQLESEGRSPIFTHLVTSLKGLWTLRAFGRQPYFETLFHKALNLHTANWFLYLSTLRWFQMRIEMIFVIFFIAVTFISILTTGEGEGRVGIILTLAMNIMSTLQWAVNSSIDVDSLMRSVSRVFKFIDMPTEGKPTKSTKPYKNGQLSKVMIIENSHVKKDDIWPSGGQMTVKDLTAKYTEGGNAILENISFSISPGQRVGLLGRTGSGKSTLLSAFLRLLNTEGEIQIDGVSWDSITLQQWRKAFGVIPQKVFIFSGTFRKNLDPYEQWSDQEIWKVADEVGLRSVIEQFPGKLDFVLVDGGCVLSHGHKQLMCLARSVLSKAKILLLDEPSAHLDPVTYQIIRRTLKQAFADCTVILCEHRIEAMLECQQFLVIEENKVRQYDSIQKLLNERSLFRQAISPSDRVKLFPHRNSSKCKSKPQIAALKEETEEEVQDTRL
SMILES,Emax [1],pEC50 [1],Maximum % activity (with co-corrector) [2],pEC50 [2]
Cc1ccccc1S(=O)(=O)NC(=O)C1(C)CCc2cccc(Cl)c21 (stereo not shown) [II-19],50 to 150%,5.00 to 5.52,++ (≥150 and <350),5.00 to 5.52
Cc1ccccc1S(=O)(=O)NC(=O)C1(C)CCc2c1ccc(F)c2F (stereo not shown) [II-20],< 50%,5.00 to 5.52,++ (≥150 and <350),5.00 to 5.52
Cc1ccccc1S(=O)(=O)NC(=O)C1(C)CCc2ccccc21 (stereo not shown) [II-21],< 50%,5.00 to 5.52,++ (≥150 and <350),5.00 to 5.52
Cc1ccc2c(c1)CCC2(C)C(=O)NS(=O)(=O)c1ccccc1C (stereo not shown) [II-22],50 to 150%,5.00 to 5.52,++ (≥150 and <350),5.00 to 5.52
CCc1ccccc1S(=O)(=O)NC(=O)C1CCc2c(OC)cccc21 (stereo not shown) [II-24],< 50%,5.00 to 5.52,++ (≥150 and <350),5.00 to 5.52
CCc1ccccc1S(=O)(=O)NC(=O)C1CCc2c(Cl)cccc21 (stereo not shown) [II-25],50 to 150%,5.00 to 5.52,++ (≥150 and <350),5.00 to 5.52
O=C(NS(=O)(=O)c1cccc(Cl)c1)C1CCc2c(Cl)cccc21 (stereo not shown) [II-26],< 50%,≤ 5.00,++ (≥150 and <350),5.00 to 5.52
O=C(NS(=O)(=O)c1ccc(Cl)cc1)C1CCc2c(Cl)cccc21 (stereo not shown) [II-27],< 50%,≤ 5.00,++ (≥150 and <350),5.00 to 5.52
O=C(NS(=O)(=O)c1ccccc1F)C1CCc2c(Cl)cccc21 (stereo not shown) [II-28],< 50%,5.00 to 5.52,++ (≥150 and <350),5.00 to 5.52
COc1cccc2c1CCC2C(=O)NS(=O)(=O)c1ccccc1Cl (stereo not shown) [II-30],< 50%,5.00 to 5.52,++ (≥150 and <350),5.00 to 5.52
COc1cccc2c1CCC2C(=O)NS(=O)(=O)c1ccccc1[N+](=O)[O-] (stereo not shown) [II-31],< 50%,5.00 to 5.52,++ (≥150 and <350),5.00 to 5.52
CCC1(C(=O)NS(=O)(=O)c2ccccc2C)CCc2c(Cl)cccc21 (stereo not shown) [II-32],< 50%,> 5.52,++ (≥150 and <350),> 5.52
Cc1ccccc1S(=O)(=O)NC(=O)C1CCc2c(Br)cccc21 (stereo not shown) [II-33],50 to 150%,5.00 to 5.52,+++ (≥350),5.00 to 5.52
Cc1ccccc1S(=O)(=O)NC(=O)C1CCc2c(C3=CCOCC3)cccc21 (stereo not shown) [II-34],< 50%,5.00 to 5.52,++ (≥150 and <350),5.00 to 5.52
Cc1ccccc1S(=O)(=O)NC(=O)C1CCc2c(C3CCC3)cccc21 (stereo not shown) [II-35],50 to 150%,5.00 to 5.52,++ (≥150 and <350),5.00 to 5.52
COc1cccc2c1CCC2C(=O)NS(=O)(=O)c1ccccc1C(F)(F)F (stereo not shown) [II-37],< 50%,5.00 to 5.52,++ (≥150 and <350),5.00 to 5.52
COc1cccc2c1CCC2C(=O)NS(=O)(=O)c1ccccc1F (stereo not shown) [II-38],< 50%,≤ 5.00,++ (≥150 and <350),5.00 to 5.52
COc1cccc2c1CCC2C(=O)NS(=O)(=O)c1ccccc1Br (stereo not shown) [II-39],< 50%,5.00 to 5.52,++ (≥150 and <350),5.00 to 5.52
Cc1ccccc1S(=O)(=O)NC(=O)C1CCc2c(OC(C)C)cccc21 (stereo not shown) [II-40],50 to 150%,5.00 to 5.52,++ (≥150 and <350),5.00 to 5.52
COc1ccc(Br)c2c1CCC2C(=O)NS(=O)(=O)c1ccccc1C (stereo not shown) [II-41],50 to 150%,5.00 to 5.52,+++ (≥350),5.00 to 5.52
COc1cc(-c2cccc3c2CCC3C(=O)NS(=O)(=O)c2ccccc2C)ccn1 (stereo not shown) [II-42],50 to 150%,5.00 to 5.52,++ (≥150 and <350),5.00 to 5.52
COc1cccc2c1CCCC2C(=O)NS(=O)(=O)c1cccc2cccnc12 (stereo not shown) [II-43],50 to 150%,5.00 to 5.52,++ (≥150 and <350),5.00 to 5.52
